According to article PMC8318206 (ACS catalysis, 2020):
Values joined by “and” are separate entries in the source; they are usually repeats but may differ in a detail not shown here. Equal entries are not always repeated. “Also recorded” adds a separate entry of the source. Where two headings read alike, the source gives them in different places.

Tests used:
[1] = molecular target: T1, P450cam (Pseudomonas putida, UniProt P00183); experiment: Steady-state substrate binding titrations; conditions: for Reversal of the high-spin spectral change at high ligand concentration: camphor up to 2 mM
[2] = molecular target: T1, P450cam; experiment: Stopped-flow ligand binding kinetics; conditions: for Dominant binding mechanism: from dependence of eigenvalues on ligand and P450cam concentration; for Binding rate measurable by stopped-flow (ΔA390-A420): dead time 2 ms
[3] = molecular target: T1, P450cam; experiment: Catalytic activity: NADH oxidation with Pdx and PdR; assay type: biochemical; conditions: for Rate/Kd (specificity constant): NADH oxidation rate divided by Kd
[4] = Solubility in H2O; assay type: physicochemical; conditions: water
[5] = molecular target: T1, P450cam; conditions: reported previously; cited from earlier work
[6] = molecular target: T1, P450cam; conditions: cited from earlier work
[7] = molecular target: T1, P450cam; experiment: Estimation of koff for the P450cam·camphor complex by metyrapone trapping; assay type: binding
[8] = system: P450tcu; conditions: 5-exo hydroxylation; cited from earlier work
[9] = system: P450cam·Pdx complex; conditions: ref Hollingsworth et al., 46; cited from earlier work
[10] = 20 mM potassium MOPS (pH 7.4), 200 mM KCl
[11] = eigenvalues vs camphor concentration
[12] = fit to λ = kf + kr·S/(Kd + S), induced fit model

| Compound | Kd [1] | Dominant binding mechanism [2] | % relative to camphor (Rate/Kd) [3] | Rate/Kd (specificity constant) [3] | solubility [4] | Kd [5] | Specificity constant (rate/Kd) ([6]; reported by others, ref 54) | Reversal of the high-spin spectral change at high ligand concentration [1, 10] | Binding rate measurable by stopped-flow (ΔA390-A420) [2] | NADH coupling [6] | also measured |
| --- | --- | --- | --- | --- | --- | --- | --- | --- | --- | --- | --- |
| O=C1C2CC3CC(C2)CC1C3 [2-adamantanone] | 2.7 µM | conformational selection | 19% | 1.3e+06 M⁻¹ s⁻¹ | ≥ 2000 µM | 34 µM and 45 µM | 240000 M⁻¹ s⁻¹ |  |  |  | Exponential of binding ([2]; 2 μM 2-adamantanone and 1 μM P450cam): 72 s⁻¹; Exponential of binding ([2]; 2 μM 2-adamantanone and 10 μM P450cam): 82 s⁻¹; kobs of binding ([2]; 2 μM P450cam and 4 μM 2-adamantanone): 78 ± 2 s⁻¹; Oxidation rate ([6]; ref White et al., 54): ~ 1 s^−1; Oxidation rate ([6]; ref White et al., 54, listed as 2-Adamantone): 1 s⁻¹ |
| CC1(C)CC(=O)CC(C)(C)C1 [3,3,5,5-tetramethylcyclohexanone] | 5 µM |  | 0.6% | 40000 M⁻¹ s⁻¹ | ≥ 2000 µM | 3.5 µM |  | did reverse the spin state change at higher concentrations | changes could not be observed |  |  |
| CC(C)(C(=O)c1cccnc1)c1cccnc1 [metyrapone] |  |  |  |  |  |  |  |  |  |  | First-order rate of binding to ligand-free P450cam (k2) ([7]; 2 mM metyrapone (final)): 18.9 s⁻¹ |
| O=C1CC2CC[C@H]1C2 [norcamphor] | 250 µM |  |  | 70000 M⁻¹ s⁻¹ | ≥ 50000 µM | 350 µM |  |  | changes could not be observed | 15% |  |
| (+)-α-pinene |  | conformational selection |  |  |  | 1.1 µM |  |  |  | 23% | Kd ([1]; 20 mM potassium MOPS (pH 7.4), 200 mM KCl, absence of Pdx, 23 °C): 3.4 µM; kobs of binding ([2]; 2 μM P450cam and 30 μM (+)-α-pinene): 81 ± 3 s⁻¹; Specificity constant (rate/Kd) ([6]; based on NADH oxidation): 1.3e+06 M⁻¹ s⁻¹; Specificity constant (rate/Kd) ([6]; based on product formation): 300000 M⁻¹ s⁻¹; Oxidation rate ([6]; ref Bell et al., 37): 0.3 s⁻¹ |
| d-(+)-camphor |  | induced fit mechanism | 100% | 7e+06 M⁻¹ s⁻¹ |  |  | 340000 M⁻¹ s⁻¹ | no reversal of the high-spin spectral change was observed; also recorded: did not show any evidence for reversal |  |  | Eigenvalue λ of binding ([2]; 6 μM P450cam mixed with 2 μM camphor): 69 ± 2 s⁻¹; Intercept of linear regression of eigenvalues (koff, 2-state system) [2, 11]: 35 ± 4 s⁻¹; Slope of linear regression of eigenvalues (second-order kon, 2-state system) [2, 11]: 2.4 (± 0.3) × 10^6 M^−1 s^−1 and 2.4 (± 0.3) M^−1 s^−1; kf (kforward), forward rate constant following camphor binding [2, 12]: 112 s⁻¹ and 112 ± 49 s⁻¹; kr (kreverse), reverse rate constant [2, 12]: 28 s⁻¹ and 28 ± 7 s⁻¹; koff (k-1) of the P450cam·camphor complex ([7]; 2 μM P450cam, 10 μM camphor mixed with 2 mM metyrapone, KinTek Explorer fit): 15 s⁻¹; kon in the minimal kinetic model ([7]; fit with koff = 15 s^−1 and Kd = […] μM): 1.5e+07 M⁻¹ s⁻¹; kcat ([6]; Km based on O2 as co-substrate): 55 to 66 s⁻¹; Rate of 5-exo hydroxylation [6]: > 10 s⁻¹; Specificity constant (rate/Kd) ([6]; reported by others, ref 57): 1.6e+07 M⁻¹ s⁻¹; Rate on the basis of NADH oxidation ([6]; typically reported): 7 to 14 s⁻¹; kcat [8]: ~ 10 s^−1; Increase of the Kd of a P450cam·Pdx complex in the presence of camphor [9]: 2 fold |
